Laboratory results as given in patent US20220372014A1, “NEUROPROTECTIVE COMPOUNDS AND METHODS OF USE THEREOF” (The Johns Hopkins University, priority 2019, published 2022).
“Also recorded” adds a separate entry of the source.

Assays:
PAAN/MIF = target: T1, PAAN/MIF (Homo sapiens, UniProt P14174); test: In vitro PAAN/MIF nuclease assay (PS30 or RF substrate, PAGE gel, noncleaved substrate DNA); assay type: biochemical; conditions: RF and PS30 substrates
T1 construct: GST (N, cleaved yes); made in house; host or cells: Escherichia coli
T1 sequence (P14174 1-115): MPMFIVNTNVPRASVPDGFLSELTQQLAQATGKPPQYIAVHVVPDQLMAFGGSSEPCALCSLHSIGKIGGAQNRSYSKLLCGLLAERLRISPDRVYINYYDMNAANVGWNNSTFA
Protocol: Nuclease assay. Purified PAAN/MIF protein (4 μM) was incubated with compounds (10 μM) in the nuclease buffer [10 mM Tris-C1 (pH 7.0) and 10 mM MgCl2] for 20 m on ice. Then samples were added with 1 μM of PAAN/MIF substrate (PS30 or RF) and incubated for 1 h at 37° C. The reaction was terminated with loading buffer containing 10 mM EDTA and separated on 15% TBE-urea polyacrylamide (PAGE) gel or 20% TBE PAGE gel.
Purification of PAAN/MIF recombinant proteins. Human PAAN/MIF (NM_002415) cDNA and its variants were subcloned into pGEX-6β-1 vector (GE Healthcare) and mutants were generated using a QuikChange site-directed mutagenesis kit (Stratagene). The sequences were confirmed by automated DNA sequencing. The protein was expressed and purified from Escherichia coli by glutathione sepharose (GE Healthcare). The GST tag was subsequently proteolytically removed. GST protein was used as a negative control in the nuclease assay and PAAN/MIF proteins purified by FPLC using Superdex 200 10/300GL column (GE Healthcare, Life Sciences) were also used in the nuclease assays.

[1] = tested on: HeLa cells or neuronal cells; test: Cell death assay of Example 3 (MNNG, alamarBlue; protection against parthanatos, Table 4); assay type: cell-based; conditions: 1 μM test compound, MNNG-induced cell death, alamarBlue
In short: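 HeLa or neuronal cells (1×10^4/well) were pretreated 1 h at 37° C with 1 μM compound, exposed to MNNG for 15 min, washed, then re-incubated 18 h with 1 μM compound. Viability was read by alamarBlue fluorescence (ex 560/em 590 nm). Cell death was expressed relative to control wells.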

SH-SY5Y cells = test: MNNG-induced parthanatic cell death in SH-SY5Y cells (Alamar blue cell viability); assay type: cell-based; conditions: for inhibition of MNNG-induced parthanatic cell death: 50 μM MNNG for 15 min, viability after 24 h; for IC50: Homo sapiens, SH-SY5Y, read-out: IC50, MNNG-induced parthanatic cell death
From the text: We developed an assay to screen for PAAN/MIF nuclease inhibitors. Single-stranded PAAN/MIF nuclease DNA substrate (FIG. 10A) was amine modified on the 5′ end and immobilized on a plate. Hybridization with a biotin-labeled complementary oligonucleotide followed by addition of streptavidin conjugated horseradish peroxidase enzyme (HRP) leads to retention of HRP on the surface within each well in the presence of intact PAAN/MIF nuclease DNA substrate, which can be quantitatively detected through colorimetric change at 450 nm using the HRP substrate 3,3′,5,5′-tetramethylbenzidine (TMB). In the presence of WT PAAN/MIF, there is reduced signal, indicative of cleavage of the PAAN/MIF nuclease substrate, while the signal is not attenuated without recombinant PAAN/MIF (FIGS. 1 and 10B). […] Thus, the rapafucin library containing 45,000 macrocyclic compounds in 3,000 pools of 15 compounds was screened using this assay. […] Several pools were identified that inhibit PAAN/MIF nuclease activity from the primary screen (FIG. 4A). […] Nine pools of compounds were identified that both inhibit PAAN/MIF cleavage of the substrate and protect against MNNG-induced parthanatic cell death by greater than 70% (FIG. 10D). […] Next, the 90 individual compounds in the 6 pools were synthesized and further assessed for inhibition of PAAN/MIF nuclease activity and MNNG-induced parthanatic cell death. Among them 12 compounds (compounds 16-18, 26-28, 41, 56, 66, 67, 76, and 77) were identified that block MIF nuclease activity and MNNG-induced parthanatic cell death by greater than 60% (FIG. 10F). Dose dependence (0.1 to 1.0 μM) were assessed for the 12 compounds against MNNG-induced parthanatic cell death (FIG. 11A and Table 2) and inhibition of PAAN MIF nuclease activity against the RF (FIG. 111B) and PS30 substrates (FIG. 11C).
Cell culture, transfection, primary neuronal culture and treatment. SH-SY5Y cells (ATCC) were cultured in DMEM containing 10% fetal bovine serum and penicillin/streptomycin at 37° C. under 5% C02. The cells were transfected using PolyFect reagent (Qiagen). Parthanatos was induced by the treatment of 50 μM MNNG for 15 min in SH-SY5Y cells. ABT-888 or PAAN/MIF inhibitors were pretreated with indicated concentration 1 h before MNNG treatment and cell death were assessed after 24 h. Primary cortical neurons from WT, PAAN/MIF KO, E22Q KI or P1G KI embryos were prepared as previously described See Kam et al. (2018) Science 362:eaat8407. Briefly, the cortex was dissected and cultured at embryonic day 16 in neurobasal media supplemented with B-27, 0.5 mM L-glutamine, penicillin and streptomycin (Invitrogen). Primary neurons were infected with AAV2-control, AAV2-PAAN/MIF WT, AAV2-PAAN/MIF E22Q, AAV2-PAAN/MIF E22A or AAV2-MIF P1G (ViGene Biosciences) at days in vitro (DIV) 4-5. ABT-888 or PAAN/MIF inhibitors were applied to neurons 1 h before α-syn PFF treatment. The neuron growth medium was replaced with fresh medium alone or including inhibitors every 3-4 days. α-syn PFF was added at DIV 7 and further incubated for indicated times followed by the cell death assay or biochemical experiments.
Cell death and viability assessment. Primary cultured cortical neurons were treated with 5 μg/ml of α-syn PFF for 14 days and cell death was determined by staining of all nuclei with 7 μM Hoechst 33342 and dead cell nuclei with 2 μM propidium iodide (PI) (Invitrogen). The numbers of total and dead cells were counted with the Axiovision 4.6 software (Carl Zeiss). Cell viability was determined by fluorescence at an excitation wavelength 570 nm and an emission wavelength 585 nm using Alamar Blue (Invitrogen). […]

Structure (SMILES)	inhibition of PAAN/MIF nuclease activity (PAAN/MIF)	(%) inhibition of cell death ([1]; 1 µM) [%]	inhibition of MNNG-induced parthanatic cell death (SH-SY5Y cells)	(%) inhibition of cell death [1] [%]	IC50 (SH-SY5Y cells) [nM]	protection against MNNG-induced parthanatic cell death in PAAN/MIF mutant cells (SH-SY5Y cells; PAAN/MIF KO SH-SY5Y cells expressing L61A, 60-63A or N72A, 1 μM)
COc1ccc(CC[C@H]2OC(=O)[C@@H]3CCCCN3C(=O)C(=O)C(C)(C)COC(=O)C=CCCN(C)C(=O)[C@@H]3CCCN3C(=O)[C@H](COC(C)(C)C)N(C)C(=O)C(c3ccccc3)NC(=O)CN(C)C(=O)COc3cccc2c3)cc1OC (stereo partly drawn) [compound 41]	prominently blocked	80.6	prominently blocked			
COc1ccc(CC[C@H]2OC(=O)[C@@H]3CCCCN3C(=O)C(=O)C(C)(C)COC(=O)C=CCCN(C)C(=O)[C@@H]3CCCN3C(=O)[C@H](COC(C)(C)C)N(C)C(=O)C(c3ccccc3)NC(=O)[C@H](C)N(C)C(=O)COc3cc(F)cc2c3)cc1OC (mixture of isomers) [compound 121]	inhibited		blocked	90.1	280	significantly reduced
COc1ccc(CC[C@H]2OC(=O)[C@@H]3CCCCN3C(=O)C(=O)C(C)(C)COC(=O)C=CCCN(C)C(=O)[C@@H]3CCCN3C(=O)[C@H](CO)N(C)C(=O)C(c3ccccc3)NC(=O)[C@H](C)N(C)C(=O)COc3cccc2c3)cc1OC (stereo partly drawn) [compound 97]	has no effect		has no effect	41.4		
COc1ccc(CC[C@H]2OC(=O)[C@@H]3CCCCN3C(=O)C(=O)C(C)(C)COC(=O)C=CCCN(C)C(=O)[C@@H]3CCCN3C(=O)[C@H](COC(C)(C)C)N(C)C(=O)C(c3ccccc3)NC(=O)[C@H](C)N(C)C(=O)COc3cccc2c3)cc1OC (stereo partly drawn) [compound 56]	prominently blocked; also recorded: inhibited	81.5	prominently blocked		520	
COc1ccc(CC[C@H]2OC(=O)[C@@H]3CCCCN3C(=O)C(=O)C(C)(C)COC(=O)C=CCCN(C)C(=O)CNC(=O)[C@H](C(C)C)N(C)C(=O)[C@@H](Cc3ccccc3)NC(=O)[C@H](CC(C)C)N(C)C(=O)CCC(=O)Nc3cccc2c3)cc1OC [compound 76]	prominently blocked		prominently blocked	79.2		
COc1ccc(CC[C@H]2OC(=O)[C@@H]3CCCCN3C(=O)C(=O)C(C)(C)COC(=O)C=CCCN(C)C(=O)[C@H](C)NC(=O)[C@H](C(C)C)N(C)C(=O)[C@@H](Cc3ccccc3)NC(=O)[C@H](CC(C)C)N(C)C(=O)CCC(=O)Nc3cccc2c3)cc1OC [compound 77]	prominently blocked		prominently blocked	77.9		
